84 molecules from a flash point compilation (Sun et al. 2020) can be followed below.

Molecule `Cc1ccc(C)cc1` [1,4-xylene] came in with a flash point of 27.00 °C.
Molecule `O=C=NCCCCCCN=C=O` [1,6-diisocyanatohexane] gave a flash point of 140.00 °C.
Turning to `CC12CCC(CC1=O)C2(C)C` (centres undefined) [1,7,7-trimethylbicyclo[2.2.1]heptan-2-one], the flash point is 66.00 °C.
`CCCCOCCOCC(C)O` (centres undefined) [1-(2-butoxyethoxy)propan-2-ol] registered a flash point of 121.00 °C.
In the case of `CC(O)CNCC(C)O` (centres undefined) [1-(2-hydroxypropylamino)propan-2-ol], the flash point is 126.00 °C.
With `CCC(OCCCOC)OC(C)=O` (centres undefined) [1-(3-methoxypropoxy)propyl acetate] the figure was 86.00 °C; with `COc1ccc(C(C)=O)cc1` [1-(4-methoxyphenyl)ethanone], 138.00 °C.
With `Cc1ccc(CBr)cc1` [1-(bromomethyl)-4-methylbenzene] the figure was 98.00 °C; with `C=CCOC(Cn1ccnc1)c1ccc(Cl)cc1Cl` (centres undefined) [1-[2-(2,4-dichlorophenyl)-2-prop-2-enoxyethyl]imidazole], 192.00 °C.
For `CC(O)COC(C)(C)C` (centres undefined) [1-[(2-methylpropan-2-yl)oxy]propan-2-ol], the flash point was determined as 44.00 °C.
With `CC(O)CN(CC(C)O)CC(C)O` (centres undefined) [1-[bis(2-hydroxypropyl)amino]propan-2-ol] the figure was 160.00 °C; with `O=P(N1CC1)(N1CC1)N1CC1` [1-[bis(aziridin-1-yl)phosphoryl]aziridine], 163.00 °C; with `CCCCOP(=O)(CCCC)OCCCC` [1-[butoxy(butyl)phosphoryl]oxybutane], 154.00 °C.
The molecule `CC(O)CN` (centres undefined) [1-aminopropan-2-ol] had a flash point of 77.00 °C.
Then `Cc1ccccc1Br` [1-bromo-2-methylbenzene], with 79.00 °C.
With `Cc1ccc(Br)cc1` [1-bromo-4-methylbenzene], the flash point amounted to 85.00 °C.
Then `Brc1ccc(-c2ccccc2)cc1` [1-bromo-4-phenylbenzene], with 143.00 °C; and `CC(O)CBr` (centres undefined) [1-bromopropan-2-ol], with 54.00 °C; and `CC(CCl)OC(C)CCl` (centres undefined) [1-chloro-2-(1-chloropropan-2-yloxy)propane], with 85.00 °C.
Then `ClCCOCCCl` [1-chloro-2-(2-chloroethoxy)ethane], with 55.00 °C; and `ClCCOCOCCCl` [1-chloro-2-(2-chloroethoxymethoxy)ethane], with 110.00 °C; and `C=COCCCl` [1-chloro-2-ethenoxyethane], with 16.00 °C.
`Cc1ccccc1Cl` [1-chloro-2-methylbenzene] registered a flash point of 52.00 °C.
With `CC(C)=CCl` [1-chloro-2-methylprop-1-ene] the figure was -1.00 °C.
`O=[N+]([O-])c1ccccc1Cl` [1-chloro-2-nitrobenzene] yielded a flash point of 127.00 °C.
`FC(F)(F)c1cccc(Cl)c1` [1-chloro-3-(trifluoromethyl)benzene]: the flash point is 47.00 °C.
As to `Cc1cccc(Cl)c1` [1-chloro-3-methylbenzene], the flash point came to 52.00 °C.
With `O=[N+]([O-])c1cccc(Cl)c1` [1-chloro-3-nitrobenzene] the figure was 127.00 °C; with `FC(F)(F)c1ccc(Cl)cc1` [1-chloro-4-(trifluoromethyl)benzene], 47.00 °C.
`CCC(C(c1ccc(Cl)cc1)c1ccc(Cl)cc1)[N+](=O)[O-]` (centres undefined) [1-chloro-4-[1-(4-chlorophenyl)-2-nitrobutyl]benzene] showed a flash point of 150.00 °C.
With `O=C=Nc1ccc(Cl)cc1` [1-chloro-4-isocyanatobenzene] the figure was 110.00 °C.
Then `O=[N+]([O-])c1ccc(Cl)cc1` [1-chloro-4-nitrobenzene], with 110.00 °C.
The molecule `CCCCCCCCCCCCCl` [1-chlorododecane] came in with a flash point of 113.00 °C.
The molecule `Clc1cccc2ccccc12` [1-chloronaphthalene] had a flash point of 121.00 °C.
With `C1=CC(c2ccc(C3CC=CCC3)cc2)CCC1` (centres undefined) [1-cyclohex-2-en-1-yl-4-cyclohex-3-en-1-ylbenzene] the figure was 157.00 °C; with `C=COCC(C)C` [1-ethenoxy-2-methylpropane], -9.00 °C; with `C=Cc1ccccc1C` [1-ethenyl-2-methylbenzene], 60.00 °C.
In turn, `C=CN1CCCC1=O` [1-ethenylpyrrolidin-2-one] displayed a flash point of 93.00 °C.
With `Cc1cccc(F)c1` [1-fluoro-3-methylbenzene], the flash point amounted to 9.00 °C.
In turn, `Cc1ccc(F)cc1` [1-fluoro-4-methylbenzene] displayed a flash point of 41.00 °C.
With `CC(C)c1cc(OO)cc(C(C)C)c1` [1-hydroperoxy-3,5-di(propan-2-yl)benzene], the flash point turned out to be 79.00 °C.
Then `COCCOCCOC` [1-methoxy-2-(2-methoxyethoxy)ethane], with 67.00 °C; and `COc1ccccc1[N+](=O)[O-]` [1-methoxy-2-nitrobenzene], with 142.00 °C.
Turning to `C/C=C/c1ccc(OC)cc1` [1-methoxy-4-[(E)-prop-1-enyl]benzene], the flash point came out at 91.00 °C.
In turn, `C=CCc1ccc(OC)cc1` [1-methoxy-4-prop-2-enylbenzene] returned a flash point of 81.00 °C.
Consider `COCC(C)OC(C)=O` (centres undefined) [1-methoxypropan-2-yl acetate], for which the flash point worked out at 46.00 °C.
`Cc1ccccc1[N+](=O)[O-]` [1-methyl-2-nitrobenzene] came in with a flash point of 106.00 °C.
For `Cc1cccc([N+](=O)[O-])c1` [1-methyl-3-nitrobenzene], the flash point turned out to be 106.00 °C.
With `O=[N+]([O-])c1ccccc1C(F)(F)F` [1-nitro-2-(trifluoromethyl)benzene] the figure was 96.00 °C; with `O=[N+]([O-])c1ccc(-c2ccccc2)cc1` [1-nitro-4-phenylbenzene], 143.00 °C; with `O=[N+]([O-])c1cccc2ccccc12` [1-nitronaphthalene], 164.00 °C.
Then `CCC[N+](=O)[O-]` [1-nitropropane], with 34.00 °C.
Turning to `O=NN1CCCC1` [1-nitrosopyrrolidine], the flash point worked out at 83.00 °C.
With `CCCCCSCCCCC` [1-pentylsulfanylpentane] the figure was 85.00 °C; with `CC(=O)c1ccccc1` [1-phenylethanone], 82.00 °C.
Then `CCCOCC(C)O` (centres undefined) [1-propoxypropan-2-ol], with 48.00 °C; and `c1nc[nH]n1` [1H-1,2,4-triazole], with 170.00 °C.
With `C1=Cc2ccccc2C1` [1H-indene] the figure was 78.00 °C; with `O=CC(Cl)(Cl)Cl` [2,2,2-trichloroacetaldehyde], 75.00 °C; with `CC1=CC(C)(C)Nc2ccccc21` [2,2,4-trimethyl-1H-quinoline], 101.00 °C.
`CC(C)CC(C)(C)C` [2,2,4-trimethylpentane] came in with a flash point of -12.00 °C.
With `CC(C)CCC(C)(C)C` [2,2,5-trimethylhexane] the figure was 31.00 °C; with `OCC(CO)(CO)CO` [2,2-bis(hydroxymethyl)propane-1,3-diol], 240.00 °C.
Then `O=C(O)C(Br)Br` [2,2-dibromoacetic acid], with 113.00 °C; and `COC(F)(F)C(Cl)Cl` [2,2-dichloro-1,1-difluoro-1-methoxyethane], with 63.00 °C; and `CC(C)(C)CO` [2,2-dimethylpropan-1-ol], with 37.00 °C.
The molecule `CC(C)(C)C(=O)O` [2,2-dimethylpropanoic acid] displayed a flash point of 64.00 °C.
The molecule `C=C(Cl)C(Cl)CCl` (centres undefined) [2,3,4-trichlorobut-1-ene] showed a flash point of 63.00 °C.
Then `Oc1ccc(Cl)c(Cl)c1Cl` [2,3,4-trichlorophenol], with 62.00 °C; and `Oc1c(Cl)ccc(Cl)c1Cl` [2,3,6-trichlorophenol], with 79.00 °C.
With `O=C(O)C(O)C(O)C(=O)O` (centres undefined) [2,3-dihydroxybutanedioic acid] the figure was 210.00 °C; with `Cc1cccc(N)c1C` [2,3-dimethylaniline], 97.00 °C.
In turn, `CC(C)=CC(C)(C)C` [2,4,4-trimethylpent-2-ene] showed a flash point of 2.00 °C.
Then `CC(C)(C)CC(C)(C)S` [2,4,4-trimethylpentane-2-thiol], with 46.00 °C; and `Oc1cc(Cl)c(Cl)cc1Cl` [2,4,5-trichlorophenol], with 133.00 °C; and `CC1OC(C)OC(C)OC(C)O1` (centres undefined) [2,4,6,8-tetramethyl-1,3,5,7-tetraoxocane], with 36.00 °C.
The molecule `Oc1c(Cl)cc(Cl)cc1Cl` [2,4,6-trichlorophenol] yielded a flash point of 99.00 °C.
For the molecule `CC1OC(C)OC(C)O1` (centres undefined) [2,4,6-trimethyl-1,3,5-trioxane], the flash point was determined as 36.00 °C.
With `CC(C)(C)c1cc(C(C)(C)C)c(O)c(C(C)(C)C)c1` [2,4,6-tritert-butylphenol] the figure was 130.00 °C; with `Nc1ccc(Cl)cc1Cl` [2,4-dichloroaniline], 115.00 °C; with `Oc1ccc(Cl)cc1Cl` [2,4-dichlorophenol], 114.00 °C.
With `Nc1ccc(F)cc1F` [2,4-difluoroaniline] the figure was 63.00 °C; with `Cc1ccc(N=C=O)cc1N=C=O` [2,4-diisocyanato-1-methylbenzene], 132.00 °C; with `Cc1ccc([N+](=O)[O-])c(C)c1` [2,4-dimethyl-1-nitrobenzene], 107.00 °C.
